Patent US12435060B2, “Acylamino bridged heterocyclic compound, and composition and application thereof” (BEIJING SCITECH-MQ PHARMACEUTICALS LIMITED, priority 2019, dated 2025)

System: HT29 cells
Assay: Inhibition of cell necrosis (CCK8 method), induced programmed necrosis of HT29 cells
Type: cell-based
Settings: Homo sapiens, HT-29; rescue from necrosis induced by TNF-α 20 ng/mL, AT-406 1 μM, Z-VAD-FMK 20 μM; 16-20 hours; CCK-8, OD 450 nm
Method in brief: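 HT29 cells in McCOY's 5A with 10% FBS were pre-treated for 30 min with compound (9 fourfold steps, 25000 to 0.38 nM final, 0.25% DMSO). Necrosis was then induced with TNF-α 20 ng/mL, AT-406 1 μM and Z-VAD-FMK 20 μM for 16-20 h. Viability was read by CCK-8 OD450, normalized between uninduced and induced wells, and IC50 was curve-fitted.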

Structure (SMILES): CCOc1ncc(C)cc1-c1ccnc(NC(=O)c2nnc(Cc3ccccc3)[nH]2)c1 [Example 51, 5-benzyl-N-(2-ethoxy-5-methyl-[3,4′-bipyridin]-2′-yl)-4H-1,2,4-triazole-3-carboxamide]
- IC50: 1 to 10 µM

Structure (SMILES): Cc1ccc(OCCCC(C)(C)O)cc1-c1ccnc(NC(=O)c2nnc(CC34CC5CC(CC(C5)C3)C4)[nH]2)c1 [Example 180, 5-(adamantan-1-ylmethyl)-N-(4-(5-((4-hydroxy-4-methylpentyl)oxy)-2-methylphenyl)pyridin-2-yl)-4H-1,2,4-triazole-3-carboxamide]
- IC50: ≤ 0.1 µM

Structure (SMILES): O=C(Nc1cc(-c2cc(OCCC3CCOCC3)ccc2F)c(Cl)cn1)c1nnc(CC2CCCCC2)[nH]1 [Example 334, N-(5-chloro-4-(2-fluoro-5-(2-(tetrahydro-2H-pyran-4-yl)ethoxy)phenyl)pyridin-2-yl)-5-(cyclohexylmethyl)-4H-1,2,4-triazole-3-carboxamide]
- IC50: 0.1 to 1 µM

Structure (SMILES): COc1cnc(C)cc1-c1ccnc(NC(=O)c2nnc(Cc3ccccc3)[nH]2)c1 [Example 61, 5-benzyl-N-(5′-methoxy-2′-methyl-[4,4′-bipyridin]-2-yl)-4H-1,2,4-triazole-3-carboxamide]
- IC50: 1 to 10 µM

Structure (SMILES): O=C(Nc1cc(-c2cc(OCCC3CCOCC3)ccc2C(F)(F)F)ncn1)c1nnc(CC2CCCC2)[nH]1 [Example 460, 5-(cyclopentylmethyl)-N-(6-(5-(2-(tetrahydro-2H-pyran-4-yl)ethoxy)-2-(trifluoromethyl)phenyl)pyrimidin-4-yl)-4H-1,2,4-triazole-3-carboxamide]
- IC50: ≤ 0.1 µM

Structure (SMILES): Cc1ccc(OCCF)cc1-c1ccnc(NC(=O)c2nnc(Cc3ccccc3)[nH]2)c1 [Example 68, 5-benzyl-N-(4-(5-(2-fluoroethoxy)-2-methylphenyl)pyridin-2-yl)-4H-1,2,4-triazole-3-carboxamide]
- IC50: 0.1 to 1 µM

Structure (SMILES): CC(C)(O)CCCCOc1ccc(F)c(-c2cc(NC(=O)c3nnc(CC4CCCCC4)[nH]3)ncc2Cl)c1 [Example 326, 5-(cyclohexylmethyl)-N-(5-chloro-4-(2-fluoro-5-((5-hydroxyl-5-methylhexyl)oxy)phenyl)pyridin-2-yl)-4H-1,2,4-triazole-3-carboxamide]
- IC50: 0.1 to 1 µM

Structure (SMILES): O=C(Nc1cc(-c2cc(OCCC3CCOCC3)ccc2C(F)(F)F)ncn1)c1nnc(Cc2ccccc2F)[nH]1 [Example 459, 5-(2-fluorobenzyl)-N-(6-(5-(2-(tetrahydro-2H-pyran-4-yl)ethoxy)-2-(trifluoromethyl)phenyl)pyrimidin-4-yl)-4H-1,2,4-triazole-3-carboxamide]
- IC50: ≤ 0.1 µM

Structure (SMILES): CCOCCOc1ccc(Cl)c(-c2ccnc(NC(=O)c3nnc(CC4CCCCC4)[nH]3)c2)c1 [Example 386, N-(4-(2-chloro-5-(2-ethoxyethoxy)phenyl)pyridin-2-yl)-5-(cyclohexylmethyl)-4H-1,2,4-triazole-3-carboxamide]
- IC50: ≤ 0.1 µM

Structure (SMILES): Cc1ccc(OCCC2CCCCO2)cc1-c1ccnc(NC(=O)c2nnc(Cc3ccccc3)[nH]2)c1 (centres unmarked) [Example 227, 5-benzyl-N-(4-(2-methyl-5-(2-(tetrahydro-2H-pyran-2-yl)ethoxy)phenyl)pyridin-2-yl)-4H-1,2,4-triazole-3-carboxamide]
- IC50: ≤ 0.1 µM

Structure (SMILES): Cc1ccc(OCCCC(C)(C)O)cc1-c1ccnc(NC(=O)c2nnc(CC3CC3)[nH]2)c1 [Example 171, 5-(cyclopropylmethyl)-N-(4-(5-((4-hydroxy-4-methylpentyl)oxy)-2-methylphenyl)pyridin-2-yl)-4H-1,2,4-triazole-3-carboxamide]
- IC50: 0.1 to 1 µM

Structure (SMILES): CC(C)(C)OCCOc1ccc(Cl)c(-c2ccnc(NC(=O)c3nnc(Cc4ccccc4F)[nH]3)c2)c1 [Example 392, 5-(2-fluorobenzyl)-N-(4-(5-(2-(tert-butoxy)ethoxy)-2-chlorophenyl)pyridin-2-yl)-4H-1,2,4-triazole-3-carboxamide]
- IC50: ≤ 0.1 µM

Structure (SMILES): CC(C)(O)CCCOc1ccc(Cl)c(-c2cc(NC(=O)c3nnc(Cc4ccccc4)[nH]3)ncn2)c1 [Example 462, 5-benzyl-N-(6-(2-chloro-5-((4-hydroxy-4-methylpentyl)oxy)phenyl)pyrimidin-4-yl)-4H-1,2,4-triazole-3-carboxamide]
- IC50: ≤ 0.1 µM

Structure (SMILES): CC(C)(O)CCCOc1ccc(C(F)(F)F)c(-c2ccnc(NC(=O)c3nnc(CC4CCCCC4)[nH]3)c2)c1 [Example 259, 5-(cyclohexylmethyl)-N-(4-(5-((4-hydroxy-4-methylpentyl)oxy)-2-(trifluoromethyl)phenyl)pyridin-2-yl)-4H-1,2,4-triazole-3-carboxamide]
- IC50: ≤ 0.1 µM

Structure (SMILES): CC(C)(O)CCCOc1ccc(Cl)c(-c2ccnc(NC(=O)c3nnc([C@@H](O)c4ccccc4)[nH]3)c2)c1 [Example 478, (S)-N-(4-(2-chloro-5-((4-hydroxy-4-methylpentyl)oxy)phenyl)pyridin-2-yl)-5-(hydroxyl(phenyl)methyl)-4H-1,2,4-triazole-3-carboxamide]
- IC50: 0.1 to 1 µM

Structure (SMILES): CC(C)(O)CCCOc1ccc(Cl)c(-c2ccnc(NC(=O)c3nnc(Cc4c(F)ccc(F)c4F)[nH]3)c2)c1 [Example 353, N-(4-(2-chloro-5-((4-hydroxy-4-methylpentyl)oxy)phenyl)pyridin-2-yl)-5-(2,3,6-trifluorobenzyl)-4H-1,2,4-triazole-3-carboxamide]
- IC50: ≤ 0.1 µM

Structure (SMILES): COCCOc1ccc(C)c(-c2ccnc(NC(=O)c3nnc(Cc4ccccc4)[nH]3)c2)c1 [Example 128, 5-benzyl-N-(4-(5-(2-methoxyethoxy)-2-methylphenyl)pyridin-2-yl)-4H-1,2,4-triazole-3-carboxamide]
- IC50: ≤ 0.1 µM

Structure (SMILES): Cc1ccc(OCCCC(C)(C)O)cc1-c1ccnc(NC(=O)c2nnc(Cc3cccc(Cl)c3)[nH]2)c1 [Example 185, 5-(3-chlorobenzyl)-N-(4-(5-((4-hydroxy-4-methylpentyl)oxy)-2-methylphenyl)pyridin-2-yl)-4H-1,2,4-triazole-3-carboxamide]
- IC50: ≤ 0.1 µM

Structure (SMILES): CCOc1ccc(Cl)c(-c2cncc(NC(=O)c3nnc(Cc4ccccc4)[nH]3)c2)c1 [Example 105, 5-benzyl-N-(5-(2-chloro-5-ethoxyphenyl)pyridin-3-yl)-4H-1,2,4-triazole-3-carboxamide]
- IC50: > 10 µM

Structure (SMILES): Cc1ccc(OCCCC(C)C#N)cc1-c1ccnc(NC(=O)c2nnc(Cc3ccccc3)[nH]2)c1 (centres unmarked) [Example 90, 5-benzyl-N-(4-(5-((4-cyanopentyl)oxy)-2-methylphenyl)pyridin-2-yl)-4H-1,2,4-triazole-3-carboxamide]
- IC50: ≤ 0.1 µM

Structure (SMILES): Cc1c(OCCCCO)cccc1-c1ccnc(NC(=O)c2nnc(Cc3ccccc3)[nH]2)c1 [Example 99, 5-benzyl-N-(4-(3-(4-hydroxybutoxy)-2-methylphenyl)pyridin-2-yl)-4H-1,2,4-triazole-3-carboxamide]
- IC50: 0.1 to 1 µM

Structure (SMILES): CCOc1nc(-c2ccnc(NC(=O)c3nnc(Cc4ccccc4)[nH]3)c2)ccc1C [Example 53, 5-benzyl-N-(6-ethoxy-5-methyl-[2,4′-bipyridin]-2′-yl)-4H-1,2,4-triazole-3-carboxamide]
- IC50: > 10 µM

Structure (SMILES): COCCCOc1ccc(Cl)c(-c2ccnc(NC(=O)c3nnc(Cc4ccccc4)[nH]3)c2)c1 [Example 395, 5-benzyl-N-(4-(2-chloro-5-(3-methoxypropoxy)phenyl)pyridin-2-yl)-4H-1,2,4-triazole-3-carboxamide]
- IC50: ≤ 0.1 µM

Structure (SMILES): CC(C)(O)CCCCOc1ccc(Cl)c(-c2cc(NC(=O)c3nnc(CC4CCCCC4)[nH]3)ncc2Cl)c1 [Example 421, N-(5-chloro-4-(2-chloro-5-((5-hydroxyl-5-methylhexyl)oxy)phenyl)pyridin-2-yl)-5-(cyclohexylmethyl)-4H-1,2,4-triazole-3-carboxamide]
- IC50: 0.1 to 1 µM

Structure (SMILES): O=C(Nc1cc(-c2cc(OCC3CCOCC3)ccc2C(F)(F)F)ccn1)c1nnc(Cc2ccc(F)cc2)[nH]1 [Example 302, 5-(4-fluorobenzyl)-N-(4-(5-((tetrahydro-2H-pyran-4-yl)methoxy)-2-(trifluoromethyl)phenyl)pyridin-2-yl)-4H-1,2,4-triazole-3-carboxamide]
- IC50: ≤ 0.1 µM

Structure (SMILES): O=C(Nc1cc(-c2cc(OCCC3CCOCC3)ccc2Cl)ncn1)c1nnc(Cc2ccccc2F)[nH]1 [Example 471, N-(6-(2-chloro-5-(2-(tetrahydro-2H-pyran-4-yl)ethoxy)phenyl)pyrimidin-4-yl)-5-(2-fluorobenzyl)-4H-1,2,4-triazole-3-carboxamide]
- IC50: ≤ 0.1 µM

Structure (SMILES): CC(C)(O)CCCOc1ccc(Cl)c(-c2ccnc(NC(=O)c3nnc(Cc4cc(F)cc(Cl)c4)[nH]3)c2)c1 [Example 341, N-(4-(2-chloro-5-((4-hydroxy-4-methylpentyl)oxy)phenyl)pyridin-2-yl)-5-(3-chloro-5-fluorobenzyl)-4H-1,2,4-triazole-3-carboxamide]
- IC50: 0.1 to 1 µM

Structure (SMILES): O=C(Nc1cc(-c2cc(OCCC3CCOCC3)ccc2Cl)ccn1)c1nnc(Cc2ccccc2F)[nH]1 [Example 404, N-(4-(2-chloro-5-(2-(tetrahydro-2H-pyran-4-yl)ethoxy)phenyl)pyridin-2-yl)-5-(2-fluorobenzyl)-4H-1,2,4-triazole-3-carboxamide]
- IC50: ≤ 0.1 µM

Structure (SMILES): COc1ccc(Cl)cc1-c1ccnc(NC(=O)c2nnc(Cc3ccccc3)[nH]2)c1 [Example 15, 5-benzyl-N-(4-(5-chloro-2-methoxyphenyl)pyridin-2-yl)-4H-1,2,4-triazole-3-carboxamide]
- IC50: 1 to 10 µM

Structure (SMILES): COc1ccc(C)cc1-c1ccnc(NC(=O)c2nnc(Cc3ccccc3)[nH]2)c1 [Example 16, 5-benzyl-N-(4-(2-methoxy-5-methylphenyl)pyridin-2-yl)-4H-1,2,4-triazole-3-carboxamide]
- IC50: 1 to 10 µM

Structure (SMILES): O=C(Nc1cc(-c2cc(OCCCCCO)ccc2C(F)(F)F)ccn1)c1nnc(CC2CCCC2)[nH]1 [Example 277, 5-(cyclopentylmethyl)-N-(4-(5-((5-hydroxypentyl)oxy)-2-(trifluoromethyl)phenyl)pyridin-2-yl)-4H-1,2,4-triazole-3-carboxamide]
- IC50: ≤ 0.1 µM

Structure (SMILES): CCCCOc1ccc(C)c(-c2ccnc(NC(=O)c3nnc(Cc4ccccc4)[nH]3)c2)c1 [Example 198, 5-benzyl-N-(4-(5-butoxy-2-methylphenyl)pyridin-2-yl)-4H-1,2,4-triazole-3-carboxamide]
- IC50: 0.1 to 1 µM
